Assay: xn = mol fraction of the nth substance listed
Details: for electrical conductivity: frequency 0.001 MHz

CCCCCC[n+]1ccn(C)c1.N#Cc1ccc[n-]1 + CCCCCCCCCCCCCC[P+](CCCCCC)(CCCCCC)CCCCCC.O=S(=O)([N-]S(=O)(=O)C(F)(F)F)C(F)(F)F
283.15 K, 100 kPa
Details | viscosity [mPa·s]
x2 = 0 | 900
x2 = 0.1 | 890
x2 = 0.2 | 880
x2 = 0.501 | 850
x2 = 0.601 | 880
x2 = 0.7 | 850
x2 = 0.8 | 870
x2 = 0.9 | 810

CCOP(=O)([O-])OCC.CC[n+]1ccn(C)c1 + CCCO + O
100 kPa
Details | viscosity [mPa·s]
293.15 K, x2 = 0.347, x3 = 0.3491 | 90
303.15 K, x2 = 0.294, x3 = 0.304 | 78
313.15 K, x2 = 0.15, x3 = 0.1487 | 93
313.15 K, x2 = 0.199, x3 = 0.1954 | 76
323.15 K, x2 = 0.048, x3 = 0.0487 | 80

CCCC[n+]1ccn(C)c1.O=S(=O)([O-])C(F)(F)F + c1ccccc1
100 kPa
Details | viscosity [mPa·s]
298.15 K, x2 = 0 | 88
298.15 K, x2 = 0.122 | 64.3
298.15 K, x2 = 0.573 | 12.62
308.15 K, x2 = 0.122 | 42.2
308.15 K, x2 = 0.304 | 25.4
318.15 K, x2 = 0.467 | 10.64
318.15 K, x2 = 0.573 | 7.22
328.15 K, x2 = 0.304 | 13.62
328.15 K, x2 = 0.467 | 8.2

CCCC[n+]1ccn(C)c1.O=S(=O)([O-])C(F)(F)F + CCOC(C)=O
100 kPa
Details | viscosity [mPa·s]
298.15 K, x1 = 0.6095 | 28.3
298.15 K, x1 = 0.8932 | 55
303.15 K, x1 = 0.3978 | 13.4
303.15 K, x1 = 1 | 67
313.15 K, x1 = 0.0991 | 0.84
313.15 K, x1 = 1 | 43.7
318.15 K, x1 = 0.1916 | 2.57
318.15 K, x1 = 1 | 36.3
323.15 K, x1 = 0.7987 | 18.2
323.15 K, x1 = 0.8932 | 22.4

CCCC[n+]1ccn(C)c1.COP(=O)([O-])OC + CO
viscosity [mPa·s], 101 kPa
Details | 293.15 K | 308.15 K | 313.15 K | 318.15 K
x2 = 0.404 | – | 68.7 | – | 44.37
x2 = 0.8 | 7.184 | – | 4.401 | –

CCCC[P+](CC)(CCCC)CCCC.F[B-](F)(F)F + CC#N
viscosity [mPa·s], 100 kPa
Details | x1 = 0.004068 | x1 = 0.008179 | x1 = 0.01204 | x1 = 0.01601 | x1 = 0.01998 | x1 = 0.02358 | x1 = 0.02792 | x1 = 0.03171 | x1 = 0.03517 | x1 = 0.03939
293.15 K | 0.373 | 0.392 | 0.411 | 0.431 | 0.452 | 0.473 | 0.497 | 0.521 | 0.542 | 0.57
298.15 K | 0.355 | 0.374 | 0.391 | 0.41 | 0.429 | 0.448 | 0.471 | 0.494 | 0.513 | 0.539
303.15 K | 0.34 | 0.357 | 0.373 | 0.391 | 0.409 | 0.426 | 0.448 | 0.469 | 0.486 | 0.511
308.15 K | 0.326 | 0.342 | 0.356 | 0.372 | 0.389 | 0.406 | 0.426 | 0.446 | 0.462 | 0.486
313.15 K | 0.313 | 0.327 | 0.341 | 0.356 | 0.372 | 0.389 | 0.406 | 0.424 | 0.44 | 0.463
318.15 K | 0.3 | 0.313 | 0.326 | 0.341 | 0.356 | 0.37 | 0.387 | 0.404 | 0.419 | 0.44

CCCC[n+]1ccn(C)c1.O=S(=O)([O-])C(F)(F)F + CS(C)=O
viscosity [mPa·s], 100 kPa
Details | x1 = 0.1006 | x1 = 0.2001 | x1 = 0.3054 | x1 = 0.4035 | x1 = 0.502 | x1 = 0.6085 | x1 = 0.7001 | x1 = 0.8088 | x1 = 0.9004 | x1 = 1
298.15 K | 4 | 6.59 | 10.1 | 14.3 | 21.8 | 33 | 44 | 59.8 | 72.8 | 82.4
303.15 K | 3.57 | 5.71 | 8.68 | 12.4 | 18.4 | 27.2 | 36 | 48.1 | 58.3 | 66.7
308.15 K | 3.18 | – | 7.55 | 10.5 | 15.5 | 22.7 | 29.7 | 39.6 | 47.4 | 52.9
313.15 K | 2.88 | 4.46 | 6.61 | 9.22 | 13.3 | 19.2 | 25 | 32.8 | 39 | 43.7
318.15 K | 2.61 | 3.98 | 5.83 | 8.08 | 11.5 | 16.4 | 21.2 | 27.5 | 32.6 | 36.3
323.15 K | 2.38 | 3.59 | 5.2 | 7.15 | 10.1 | 14.2 | 18.1 | 23.4 | 27.5 | 30.6

CCCCCCCCCCCCCCn1cc[n+](C)c1.[Br-] + O
electrical conductivity [S/m], 101 kPa
Details | 298.15 K | 308.15 K | 318.15 K
x1 = 4.74e-06 | 0.00249 | 0.00401 | 0.00409
x1 = 9.35e-06 | 0.00459 | 0.00671 | 0.00708
x1 = 1.386e-05 | 0.0065 | 0.0093 | 0.0101
x1 = 1.825e-05 | 0.00834 | 0.011 | 0.0127
x1 = 2.252e-05 | 0.0101 | 0.0135 | 0.0154
x1 = 2.669e-05 | 0.0119 | 0.0154 | 0.0182
x1 = 3.076e-05 | 0.0136 | 0.0173 | 0.0206
x1 = 3.474e-05 | 0.0152 | 0.0199 | 0.0232
x1 = 3.862e-05 | 0.0167 | 0.0218 | 0.0253
x1 = 4.24e-05 | 0.0183 | 0.0238 | 0.028
x1 = 4.613e-05 | 0.0192 | 0.0252 | 0.0303
x1 = 4.973e-05 | 0.0199 | 0.0265 | 0.0322
x1 = 5.334e-05 | 0.0204 | 0.0273 | 0.0335
x1 = 5.676e-05 | 0.0209 | 0.0282 | 0.0345
x1 = 6e-05 | 0.0213 | 0.0288 | 0.0356
x1 = 6.343e-05 | 0.0217 | 0.0294 | 0.0365
x1 = 6.667e-05 | 0.0221 | 0.03 | 0.0372
x1 = 6.973e-05 | 0.0225 | 0.0305 | 0.0377
x1 = 7.28e-05 | 0.0229 | 0.0311 | 0.0383
x1 = 7.586e-05 | 0.0233 | 0.0316 | 0.0389
x1 = 7.892e-05 | 0.0236 | 0.0321 | 0.0396
x1 = 8.18e-05 | 0.024 | 0.0326 | 0.0408
x1 = 8.451e-05 | 0.0243 | 0.0329 | 0.0414
x1 = 8.739e-05 | 0.0246 | 0.0333 | 0.0418

CCCC[n+]1ccn(C)c1.O=S(=O)([O-])C(F)(F)F + NCCO
Details | viscosity [mPa·s]
293.15 K, 101 kPa, x2 = 0.3209 | 52.92
